Test results: ChEMBL document CHEMBL3885881, “DrugMatrix”

Species: Rattus norvegicus
Test: DrugMatrix - Regimen: Daily Repeat
Assay type: toxicity, organism-based, Sprague-Dawley
Parameters: regimen Daily Repeat, gender Male, age 6-8 weeks
Details: in vivo, po, route oral GAVAGE, vehicle 100 % WATER; for ABSOLUTE BASOPHIL / ABSOLUTE EOSINOPHIL / ABSOLUTE LYMPHOCYTE / ABSOLUTE MONOCYTE / ABSOLUTE SEGMENTED NEUTROPHIL / BASOPHIL / EOSINOPHIL / ERYTHROCYTE COUNT / HEMATOCRIT / HEMOGLOBIN / LEUKOCYTE COUNT / LYMPHOCYTE / MEAN CORPUSCULAR HEMOGLOBIN / MEAN CORPUSCULAR HEMOGLOBIN CONCENTRATION / MEAN CORPUSCULAR VOLUME / MONOCYTE / NEUTROPHIL / NUCLEATED RED BLOOD CELLS / PLATELET COUNT: tissue Blood; for ALANINE AMINOTRANSFERASE / ALBUMIN / ALKALINE PHOSPHATASE / ASPARTATE AMINOTRANSFERASE / BLOOD UREA NITROGEN / CARBON DIOXIDE / CHLORIDE / CHOLESTEROL / CREATINE PHOSPHOKINASE / CREATININE / GLUCOSE / LACTATE DEHYDROGENASE / LIPASE / PHOSPHORUS / POTASSIUM / SODIUM / TOTAL BILIRUBIN / TOTAL PROTEIN / URIC ACID: tissue Plasma
[1] = 60 mg/kg, 72 h, dose level Low, time 3 day
[2] = 60 mg/kg, 120 h, dose level Low, time 5 day
[3] = 600 mg/kg, 72 h, dose level High, time 3 day
[4] = 600 mg/kg, 120 h, dose level High, time 5 day

SMILES: C=C(Cl)Cl [1,1-DICHLOROETHENE]
- ABSOLUTE BASOPHIL [1]: 0 CELLS/uL
- ABSOLUTE EOSINOPHIL [1]: 51.33 CELLS/uL
- ABSOLUTE LYMPHOCYTE [1]: 13010.33 CELLS/uL
- ABSOLUTE MONOCYTE [1]: 288.67 CELLS/uL
- ABSOLUTE SEGMENTED NEUTROPHIL [1]: 1149.67 CELLS/uL
- BASOPHIL [1]: 0%
- EOSINOPHIL [1]: 0.33%
- ERYTHROCYTE COUNT [1]: 5.5 x10E6/uL
- HEMATOCRIT [1]: 34%
- HEMOGLOBIN [1]: 13.53 G/DL
- LEUKOCYTE COUNT [1]: 14.5 x10E3/uL
- LYMPHOCYTE [1]: 89.67%
- MEAN CORPUSCULAR HEMOGLOBIN [1]: 24.63 pg
- MEAN CORPUSCULAR HEMOGLOBIN CONCENTRATION [1]: 39.83 G/DL
- MEAN CORPUSCULAR VOLUME [1]: 61.83 fL
- MONOCYTE [1]: 2%
- NEUTROPHIL [1]: 8%
- NUCLEATED RED BLOOD CELLS [1]: 0.33 /100WBC
- PLATELET COUNT [1]: 1358.33 x10E3/uL
- ALANINE AMINOTRANSFERASE [1]: 52 u/L
- ALBUMIN [1]: 4.13 G/DL
- ALKALINE PHOSPHATASE [1]: 441.67 u/L
- ASPARTATE AMINOTRANSFERASE [1]: 84.67 u/L
- BLOOD UREA NITROGEN [1]: 15 mg/dL
- CARBON DIOXIDE [1]: 24.33 mmol/L
- CHLORIDE [1]: 102 MEQ/L
- CHOLESTEROL [1]: 73.33 mg/dL
- CREATINE PHOSPHOKINASE [1]: 314 u/L
- CREATININE [1]: 0.14 mg/dL
- GLUCOSE [1]: 162 mg/dL
- LACTATE DEHYDROGENASE [1]: 291.33 u/L
- LIPASE [1]: 9 u/L
- PHOSPHORUS [1]: 13 mg/dL
- POTASSIUM [1]: 6.27 MEQ/L
- SODIUM [1]: 144.17 MEQ/L
- TOTAL BILIRUBIN [1]: 0.13 mg/dL
- TOTAL PROTEIN [1]: 5.77 G/DL
- URIC ACID [1]: 1.43 mg/dL
- ABSOLUTE BASOPHIL [2]: 0 CELLS/uL
- ABSOLUTE EOSINOPHIL [2]: 128.33 CELLS/uL
- ABSOLUTE LYMPHOCYTE [2]: 16922 CELLS/uL
- ABSOLUTE MONOCYTE [2]: 76.33 CELLS/uL
- ABSOLUTE SEGMENTED NEUTROPHIL [2]: 1473.33 CELLS/uL
- BASOPHIL [2]: 0%
- EOSINOPHIL [2]: 0.67%
- ERYTHROCYTE COUNT [2]: 5.28 x10E6/uL
- HEMATOCRIT [2]: 33.8%
- HEMOGLOBIN [2]: 13.87 G/DL
- LEUKOCYTE COUNT [2]: 18.6 x10E3/uL
- LYMPHOCYTE [2]: 91.33%
- MEAN CORPUSCULAR HEMOGLOBIN [2]: 26.23 pg
- MEAN CORPUSCULAR HEMOGLOBIN CONCENTRATION [2]: 41.07 G/DL
- MEAN CORPUSCULAR VOLUME [2]: 63.9 fL
- MONOCYTE [2]: 0.33%
- NEUTROPHIL [2]: 7.67%
- NUCLEATED RED BLOOD CELLS [2]: 0 /100WBC
- PLATELET COUNT [2]: 1031 x10E3/uL
- ALANINE AMINOTRANSFERASE [2]: 56.67 u/L
- ALBUMIN [2]: 4.23 G/DL
- ALKALINE PHOSPHATASE [2]: 282 u/L
- ASPARTATE AMINOTRANSFERASE [2]: 78 u/L
- BLOOD UREA NITROGEN [2]: 16.67 mg/dL
- CARBON DIOXIDE [2]: 23.67 mmol/L
- CHLORIDE [2]: 103.67 MEQ/L
- CHOLESTEROL [2]: 71.67 mg/dL
- CREATINE PHOSPHOKINASE [2]: 168.67 u/L
- CREATININE [2]: 0.22 mg/dL
- GLUCOSE [2]: 147.33 mg/dL
- LACTATE DEHYDROGENASE [2]: 101.67 u/L
- LIPASE [2]: 9.33 u/L
- PHOSPHORUS [2]: 13.27 mg/dL
- POTASSIUM [2]: 6.62 MEQ/L
- SODIUM [2]: 147.33 MEQ/L
- TOTAL BILIRUBIN [2]: 0.2 mg/dL
- TOTAL PROTEIN [2]: 5.9 G/DL
- URIC ACID [2]: 1.67 mg/dL
- ABSOLUTE BASOPHIL [3]: 0 CELLS/uL
- ABSOLUTE EOSINOPHIL [3]: 0 CELLS/uL
- ABSOLUTE LYMPHOCYTE [3]: 19725 CELLS/uL
- ABSOLUTE MONOCYTE [3]: 397.33 CELLS/uL
- ABSOLUTE SEGMENTED NEUTROPHIL [3]: 2311 CELLS/uL
- BASOPHIL [3]: 0%
- EOSINOPHIL [3]: 0%
- ERYTHROCYTE COUNT [3]: 5.83 x10E6/uL
- HEMATOCRIT [3]: 37.37%
- HEMOGLOBIN [3]: 15.3 G/DL
- LEUKOCYTE COUNT [3]: 22.43 x10E3/uL
- LYMPHOCYTE [3]: 88.33%
- MEAN CORPUSCULAR HEMOGLOBIN [3]: 26.2 pg
- MEAN CORPUSCULAR HEMOGLOBIN CONCENTRATION [3]: 40.93 G/DL
- MEAN CORPUSCULAR VOLUME [3]: 64 fL
- MONOCYTE [3]: 2%
- NEUTROPHIL [3]: 9.67%
- NUCLEATED RED BLOOD CELLS [3]: 0.33 /100WBC
- PLATELET COUNT [3]: 1189.67 x10E3/uL
- ALANINE AMINOTRANSFERASE [3]: 61.33 u/L
- ALBUMIN [3]: 4.23 G/DL
- ALKALINE PHOSPHATASE [3]: 458.33 u/L
- ASPARTATE AMINOTRANSFERASE [3]: 80 u/L
- BLOOD UREA NITROGEN [3]: 11.33 mg/dL
- CARBON DIOXIDE [3]: 26 mmol/L
- CHLORIDE [3]: 103.67 MEQ/L
- CHOLESTEROL [3]: 79.67 mg/dL
- CREATINE PHOSPHOKINASE [3]: 213.67 u/L
- CREATININE [3]: 0.17 mg/dL
- GLUCOSE [3]: 159 mg/dL
- LACTATE DEHYDROGENASE [3]: 74.33 u/L
- LIPASE [3]: 9.67 u/L
- PHOSPHORUS [3]: 12.7 mg/dL
- POTASSIUM [3]: 6.59 MEQ/L
- SODIUM [3]: 144.9 MEQ/L
- TOTAL BILIRUBIN [3]: 0.2 mg/dL
- TOTAL PROTEIN [3]: 5.83 G/DL
- URIC ACID [3]: 1.9 mg/dL
- ABSOLUTE BASOPHIL [4]: 0 CELLS/uL
- ABSOLUTE EOSINOPHIL [4]: 0 CELLS/uL
- ABSOLUTE LYMPHOCYTE [4]: 18262.67 CELLS/uL
- ABSOLUTE MONOCYTE [4]: 288.67 CELLS/uL
- ABSOLUTE SEGMENTED NEUTROPHIL [4]: 2115.33 CELLS/uL
- BASOPHIL [4]: 0%
- EOSINOPHIL [4]: 0%
- ERYTHROCYTE COUNT [4]: 5.83 x10E6/uL
- HEMATOCRIT [4]: 36.67%
- HEMOGLOBIN [4]: 14.73 G/DL
- LEUKOCYTE COUNT [4]: 20.67 x10E3/uL
- LYMPHOCYTE [4]: 89%
- MEAN CORPUSCULAR HEMOGLOBIN [4]: 25.23 pg
- MEAN CORPUSCULAR HEMOGLOBIN CONCENTRATION [4]: 40.2 G/DL
- MEAN CORPUSCULAR VOLUME [4]: 62.87 fL
- MONOCYTE [4]: 1.33%
- NEUTROPHIL [4]: 9.67%
- NUCLEATED RED BLOOD CELLS [4]: 0.33 /100WBC
- PLATELET COUNT [4]: 1233.33 x10E3/uL
- ALANINE AMINOTRANSFERASE [4]: 48 u/L
- ALBUMIN [4]: 4.23 G/DL
- ALKALINE PHOSPHATASE [4]: 376.33 u/L
- ASPARTATE AMINOTRANSFERASE [4]: 81 u/L
- BLOOD UREA NITROGEN [4]: 14.67 mg/dL
- CARBON DIOXIDE [4]: 23.33 mmol/L
- CHLORIDE [4]: 102 MEQ/L
- CHOLESTEROL [4]: 75 mg/dL
- CREATINE PHOSPHOKINASE [4]: 337.67 u/L
- CREATININE [4]: 0.21 mg/dL
- GLUCOSE [4]: 150.33 mg/dL
- LACTATE DEHYDROGENASE [4]: 117.33 u/L
- LIPASE [4]: 10 u/L
- PHOSPHORUS [4]: 12.33 mg/dL
- POTASSIUM [4]: 7.1 MEQ/L
- SODIUM [4]: 144.9 MEQ/L
- TOTAL BILIRUBIN [4]: 0.2 mg/dL
- TOTAL PROTEIN [4]: 6.1 G/DL
- URIC ACID [4]: 1.77 mg/dL
